Test results as given in article PMC10213937 (Frontiers in Pharmacology, 2023).
Read-outs that look alike come from different tables or passages of the source.

Legend:
[1] = Plasma concentrations of ATO, metabolites and VOR in patients (HPLC-MS/MS); format: in vivo, human; set-up: Concentration in human blood samples: unit not given here; conditions: for Concentration in human blood samples: n = 3; for Decrease of metabolite concentration in the VOR group: VOR + ATO vs ATO alone
From the text: The experimental procedures were approved by the Ethics Committee of Shenzhen Hospital of Southern Medical University, and conducted in accordance with the Declaration of Helsinki (No. NYSZYYEC20180017). Subjects were selected from patients seen in the Department of Critical Care Medicine of Shenzhen Hospital of Southern Medical University, who were diagnosed with fungal infections complicated by cardiovascular and cerebrovascular diseases. Written informed consent was obtained from three patients aged 20-55 years. […] All procedures followed the ethical principles of the World Medical Association (WMA) Declaration of Helsinki and were approved by the Medical Ethics Committee of Shenzhen Hospital. […] Prelude […] The injection volume is 2 μL.

[2] = Stability in rat blood plasma (HPLC-MS/MS validation); conditions: n = 5
ABCC2 = ABCC2 (Homo sapiens, UniProt Q92887); experiment: ATO uptake/transport in cell transport models, ABCC2; format: cell-based; conditions: ATO as substrate, MK571 20 μM
Sequence of ABCC2 (Q92887 whole entry): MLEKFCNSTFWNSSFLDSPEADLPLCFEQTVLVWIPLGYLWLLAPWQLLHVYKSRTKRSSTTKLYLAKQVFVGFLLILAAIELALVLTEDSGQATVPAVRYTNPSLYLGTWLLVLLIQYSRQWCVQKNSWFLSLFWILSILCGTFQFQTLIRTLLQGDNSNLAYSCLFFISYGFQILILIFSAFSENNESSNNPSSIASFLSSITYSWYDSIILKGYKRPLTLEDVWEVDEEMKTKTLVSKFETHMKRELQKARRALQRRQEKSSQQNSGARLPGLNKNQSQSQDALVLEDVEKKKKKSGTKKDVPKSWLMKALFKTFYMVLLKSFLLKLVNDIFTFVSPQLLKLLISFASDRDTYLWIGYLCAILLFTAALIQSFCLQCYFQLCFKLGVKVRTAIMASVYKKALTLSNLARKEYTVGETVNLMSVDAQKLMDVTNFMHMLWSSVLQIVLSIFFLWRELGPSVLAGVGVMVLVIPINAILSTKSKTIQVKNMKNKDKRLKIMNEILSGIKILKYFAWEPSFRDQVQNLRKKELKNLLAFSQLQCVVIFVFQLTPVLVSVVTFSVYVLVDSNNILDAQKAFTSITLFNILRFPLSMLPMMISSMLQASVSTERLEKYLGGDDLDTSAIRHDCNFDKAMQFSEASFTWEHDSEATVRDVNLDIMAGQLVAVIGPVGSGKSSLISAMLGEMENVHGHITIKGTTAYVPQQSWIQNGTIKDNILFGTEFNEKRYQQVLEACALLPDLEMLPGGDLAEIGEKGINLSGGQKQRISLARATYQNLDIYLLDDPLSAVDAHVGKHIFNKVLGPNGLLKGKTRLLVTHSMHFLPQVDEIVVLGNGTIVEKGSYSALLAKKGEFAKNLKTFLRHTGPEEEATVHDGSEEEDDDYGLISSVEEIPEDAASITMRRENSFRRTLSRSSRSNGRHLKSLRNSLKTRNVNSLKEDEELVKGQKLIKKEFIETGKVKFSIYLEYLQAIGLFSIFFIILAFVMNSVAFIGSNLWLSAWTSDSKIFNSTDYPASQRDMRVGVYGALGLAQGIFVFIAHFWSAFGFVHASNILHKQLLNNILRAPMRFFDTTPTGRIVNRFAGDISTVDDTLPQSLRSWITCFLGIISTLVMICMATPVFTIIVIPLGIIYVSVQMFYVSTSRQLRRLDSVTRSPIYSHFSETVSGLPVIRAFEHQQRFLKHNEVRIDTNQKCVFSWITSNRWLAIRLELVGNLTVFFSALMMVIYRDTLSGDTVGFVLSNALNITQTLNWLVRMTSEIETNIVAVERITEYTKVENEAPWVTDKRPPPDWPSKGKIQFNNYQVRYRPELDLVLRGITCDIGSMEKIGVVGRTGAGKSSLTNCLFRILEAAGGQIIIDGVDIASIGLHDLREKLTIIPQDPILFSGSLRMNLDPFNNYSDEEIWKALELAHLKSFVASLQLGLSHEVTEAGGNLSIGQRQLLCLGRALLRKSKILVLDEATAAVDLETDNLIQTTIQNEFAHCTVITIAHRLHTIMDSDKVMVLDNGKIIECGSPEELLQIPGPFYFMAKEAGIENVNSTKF

CYP3A [3] = experiment: in vitro; conditions: rat, microsomes
CYP3A [4] = experiment: Inhibition by VOR of ATO metabolism in rat liver microsomes; format: in vitro ADME; conditions: pH 7.4, probe atorvastatin (ATO), 2 μM
Experimental: The incubations were performed in duplicate.

[5] = rat
[6] = Pharmacokinetic interaction study in rats, Study II: VOR with or without ATO; format: in vivo; conditions: male, Sprague-Dawley, rat, plasma, po, 20 mg/kg; for AUC(0-t): read-out: AUC0–24h
Experimental: Considering the clinical dosage of each drug and the dose equivalence between rats and human subjects, the corresponding quantity of drug powder was taken and resuspended with normal saline to prepare the drug-containing administration solution before treatment.
Treatment of the blood plasma: 40 µL of blood plasma was mixed with 10 µL of internal standard working solution (500 ng/ml) and acidified with 100 µL CH3COONa (0.1 mol/L). After the methyl tert-butyl (1 ml) was added, the mixture was vortexed for 5 min and centrifuged at 3000 r/min for 10 min at 4°C. The supernatant was removed into another 10 ml conical glass tube and dried in a rotary evaporator at 45°C. The residue was redissolved in 100 µL methanol and vortexed for 1 min, followed by HPLC-MS/MS analysis.
A Thermo Scientific™ TSQ Quantiva™ triple-stage quadrupole mass spectrometer (Thermo Fisher Scientific, MA, USA) equipped with a Thermo Scientific™ OptaMax™ NG ion source was used for the experiments. Prelude SPLC™ System samples, pretreatment technology (TurboFlow Eddy current purification), and a Thermo Scientific liquid chromatography system were also connected to the mass spectrometer. The HPLC conditions were as follows: column, Thermo Hypersil Gold C18 column (2.1 × 100 mm, 1.9 μm), column temperature maintained at 40 °C; TurboFlow column, Thermo Cyclone TM-P (0.5 × 50 mm) (ThermoFisher Scientific, MA, USA). The injection volume is 2 μL.
The analytes were quantified by selective reaction monitoring (SRM) that used heating electrospray ionization (H-ESI) in the positive ion mode. The main working parameters of the mass spectrometry were regulated as follows: ion spray voltage, 3 kV; capillary temperature, 350°C; sheath gas (N2) flow, 45 Arb; auxiliary gas (N2) flow, 10 Arb; and collision gas (Ar) flow, 2 mTorr. […] Thermo Scientific™ Pinpoint™ software version 1.3 (ThermoFisher Scientific, MA, USA) was used for data acquisition.
The blood samples (0.2 ml aliquots) were collected after taking a single dose of the test drug, which was the same as described in Study I. The blood samples were preserved on ice for further processing; after centrifuging at 4000 rpm for 5 min, the plasma samples were obtained and stored at −80°C until further analysis was performed. […] Non-compartmental pharmacokinetic analysis of plasma data was conducted using DAS (2.0 version, BioGuider Co., Shanghai, China) to calculate the parameters in the pharmacokinetic study.

[7] = ATO 20 mg alone, 0 h after taking ATO
[8] = ATO 20 mg alone, 1 h after taking ATO
[9] = ATO 20 mg alone, 2 h after taking ATO
[10] = ATO 20 mg alone, 12 h after taking ATO
[11] = ATO 20 mg alone, 24 h after taking ATO
[12] = VOR + ATO (VOR iv 6 mg/kg day 1, 4 mg/kg days 2–3), 0 h after taking ATO
[13] = first of four printed values (1 h by Table 1)
[14] = fourth of four printed values (24 h by Table 1)
[15] = second of four printed values (2 h by Table 1)
[16] = third of four printed values (12 h by Table 1)
[17] = VOR + ATO, 1 h after taking ATO
[18] = VOR + ATO, 2 h after taking ATO
[19] = VOR + ATO, 12 h after taking ATO
[20] = VOR + ATO, 24 h after taking ATO
[21] = 24 h at 25℃, nominal 0.05 ng/mL
[22] = three freeze-thaw cycle (−80℃/25℃), nominal 0.05 ng/mL
[23] = three freeze-thaw cycle (−80℃/25℃), nominal 5 ng/mL
[24] = three freeze-thaw cycle (−80℃/25℃), nominal 80 ng/mL
[25] = ATO 2 mg/kg + VOR 20 mg/kg oral

Structure (SMILES) | Concentration in human blood samples [1, 7] | Concentration in human blood samples [1, 8] | Concentration in human blood samples [1, 9] | Concentration in human blood samples [1, 10] | Concentration in human blood samples [1, 11] | Concentration in human blood samples [1, 12] | Decrease of metabolite concentration in the VOR group [1, 13] | Decrease of metabolite concentration in the VOR group [1, 14] | Decrease of metabolite concentration in the VOR group [1, 15] | Decrease of metabolite concentration in the VOR group [1, 16] | Concentration in human blood samples [1, 17] | Concentration in human blood samples [1, 18] | Concentration in human blood samples [1, 19] | Concentration in human blood samples [1, 20] | Stability, %RE [2, 21] | Stability, measured concentration (mean ± SD) [2, 21] | Stability, %RE ([2]; 24 h at 25℃, nominal 5 ng/mL) | Stability, measured concentration (mean ± SD) ([2]; 24 h at 25℃, nominal 5 ng/mL) | Stability, %RE ([2]; 24 h at 25℃, nominal 80 ng/mL) | Stability, measured concentration (mean ± SD) ([2]; 24 h at 25℃, nominal 80 ng/mL) | further results
CC(C)c1c(C(=O)Nc2ccccc2O)c(-c2ccccc2)c(-c2ccc(F)cc2)n1CCC(O)CC(O)CC(=O)O (centres unmarked) [2-Hydroxy-ATO, 2-hydroxy-ATO] | 3.401 ± 1.028 | 21.602 ± 1.929 | 15.196 ± 1.779 | 10.106 ± 2.969 | 3.950 ± 1.867 | 4.239 + 2.160 | 74.34% | 44.30% | 33.53% | 55.72% | 5.543 + 2.235 | 10.100 + 1.896 | 4.475 + 2.687 | 2.200 + 1.184 | -0.35% | 0.047 ± 0.005 ng/mL | -8.25% | 4.538 ± 0.424 ng/mL | -6.25% | 76.114 ± 5.314 ng/mL | Stability, %RE [2, 22]: -8.35%; Stability, measured concentration (mean ± SD) [2, 22]: 0.044 ± 0.004 ng/mL; Stability, %RE [2, 23]: -1.35%; Stability, measured concentration (mean ± SD) [2, 23]: 4.554 ± 0.568 ng/mL; Stability, %RE [2, 24]: -10.28%; Stability, measured concentration (mean ± SD) [2, 24]: 72.580 ± 4.221 ng/mL
CC(C)c1c(C(=O)Nc2ccc(O)cc2)c(-c2ccccc2)c(-c2ccc(F)cc2)n1CC[C@@H](O)C[C@@H](O)CC(=O)O [4-Hydroxy-ATO, 4-hydroxy-ATO] | 4.073 ± 2.168 | 15.510 ± 1.283 | 14.783 ± 3.501 | 6.863 ± 1.586 | 6.103 ± 2.640 | 5.047 + 0.882 | 47.45% | 41.62% | 55.78% | 45.85% | 8.150 + 1.219 | 6.537 + 0.304 | 3.717 + 0.807 | 3.563 + 1.830 | -7.78% | 0.045 ± 0.007 ng/mL | -2.31% | 4.625 ± 0.337 ng/mL | -9.07% | 73.581 ± 6.587 ng/mL | Stability, %RE [2, 22]: -9.87%; Stability, measured concentration (mean ± SD) [2, 22]: 0.044 ± 0.005 ng/mL; Stability, %RE [2, 23]: -1.25%; Stability, measured concentration (mean ± SD) [2, 23]: 4.501 ± 0.411 ng/mL; Stability, %RE [2, 24]: -9.69%; Stability, measured concentration (mean ± SD) [2, 24]: 72.334 ± 7.338 ng/mL
CN(C)C(=O)CCSC(SCCC(=O)O)c1cccc(/C=C/c2ccc3ccc(Cl)cc3n2)c1 (centres unmarked) [MK571] |  |  |  |  |  |  |  |  |  |  |  |  |  |  |  |  |  |  |  |  | Effect on the activity (efflux) of ABCC2 (ABCC2): reversed the efflux
C[C@@H](c1ncncc1F)[C@](O)(Cn1cncn1)c1ccc(F)cc1F [VOR, Voriconazole] | 0.007 + 0.012 | 0.000 + 0.000 | 0.007 + 0.012 | 0.000 + 0.000 | 0.007 + 0.012 | 2.870 + 0.325 |  |  |  |  | 2.673 + 0.465 | 2.563 + 0.122 | 2.780 + 0.317 | 2.820 + 0.540 |  |  |  |  |  |  | Effect on the activity (efflux) of ABCC2 (ABCC2): no effect; IC50 (CYP3A [3]): 49.8 µM; IC50 at 20 min (CYP3A [4]): 45.9 µM; Stability, measured concentration (mean ± SD) ([5]; 0.05 ng/mL): 0.045 ± 0.004 ng/mL; Stability, measured concentration (mean ± SD) ([5]; 5 ng/mL): 4.558 ± 0.318 ng/mL; Stability, measured concentration (mean ± SD) ([5]; 80 ng/mL): 75.238 ± 5.338 ng/mL; Stability, measured concentration (mean ± SD) ([5]; 24 h, 0.05 ng/mL): 0.048 ± 0.004 ng/mL; Stability, measured concentration (mean ± SD) ([5]; 24 h, 5 ng/mL): 4.962 ± 0.301 ng/mL; Stability, measured concentration (mean ± SD) ([5]; 24 h, 80 ng/mL): 79.264 ± 5.131 ng/mL; AUC(0-inf) [6, 25]: 3280 ± 835 ng·h/mL; Cmax [6, 25]: 826 ± 166 ng/mL; Tmax [6, 25]: 0.917 ± 0.204 h; half-life [6, 25]: 2.6 ± 0.419 h; AUC(0-t) [6, 25]: 3250 ± 862 ng·h/mL; AUC(0-inf) ([6]; NS + VOR 20 mg/kg oral): 3640 ± 798 ng·h/mL; Cmax ([6]; NS + VOR 20 mg/kg oral): 829 ± 246 ng/mL; Tmax ([6]; NS + VOR 20 mg/kg oral): 1.25 ± 0.612 h; half-life ([6]; NS + VOR 20 mg/kg oral): 2.58 ± 0.317 h; AUC(0-t) ([6]; NS + VOR 20 mg/kg oral): 3630 ± 802 ng·h/mL; MRT inf ([6]; NS + VOR 20 mg/kg oral, read-out: MRT0-∞): 3.53 ± 0.66 h
